Tests used:
Experiment in all cases: relative viability (nuclei count vs DMSO), 5 days (fraction); higher = more cells survive
201T = tested on: 201T
Outline: (§1)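 Relative viability was taken as the ratio of nuclei in treated wells to nuclei in vehicle wells. Lung cancer cell lines in 1536-well plates received compounds by pin tool one day after seeding, either one drug alone or a fixed anchor-drug dose plus five library-drug doses (not always all listed) in √10 steps. Nuclei were counted on 4× images after 5 days of treatment, and values are medians of duplicate plates.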

BEN = tested on: BEN
Outline: as §1

CAL-12T = tested on: CAL-12T
Outline: as §1

HCC-44 = tested on: HCC-44
Outline: as §1

HCC-827 = tested on: HCC-827
Outline: as §1

HOP-62 = tested on: HOP-62
Outline: as §1

LCLC-103H = tested on: LCLC-103H
Outline: as §1

LCLC-97TM1 = tested on: LCLC-97TM1
Outline: as §1

LXF-289 = tested on: LXF-289
Outline: as §1

NCI-H1395 = tested on: NCI-H1395
Outline: as §1

NCI-H1437 = tested on: NCI-H1437
Outline: as §1

NCI-H1650 = tested on: NCI-H1650
Outline: as §1

NCI-H1793 = tested on: NCI-H1793
Outline: as §1

NCI-H1944 = tested on: NCI-H1944
Outline: as §1

NCI-H2087 = tested on: NCI-H2087
Outline: as §1

NCI-H2228 = tested on: NCI-H2228
Outline: as §1

NCI-H2405 = tested on: NCI-H2405
Outline: as §1

NCI-H3122 = tested on: NCI-H3122
Outline: as §1

NCI-H322M = tested on: NCI-H322M
Outline: as §1

NCI-H647 = tested on: NCI-H647
Outline: as §1

NCI-H727 = tested on: NCI-H727
Outline: as §1

RERF-LC-KJ = tested on: RERF-LC-KJ
Outline: as §1

SK-LU-1 = tested on: SK-LU-1
Outline: as §1

O=C(O)c1ccc(-c2c[nH]c3ncc(-c4ccccc4)cc23)cc1C1CCCC1 + Cc1cc(Nc2cc(N3CCN(C)CC3)nc(Sc3ccc(NC(=O)C4CC4)cc3)n2)n[nH]1 [Tozasertib] (partner 0.1 µM)
relative viability (201T; first compound 0.04 µM): 0.943
relative viability (201T; first compound 0.1265 µM): 0.973
relative viability (201T; first compound 0.4 µM): 0.893
relative viability (201T; first compound 1.265 µM): 0.771
relative viability (BEN; first compound 0.04 µM): 0.603
relative viability (BEN; first compound 0.1265 µM): 0.501
relative viability (BEN; first compound 0.4 µM): 0.49
relative viability (BEN; first compound 1.265 µM): 0.437
relative viability (CAL-12T; first compound 0.04 µM): 0.314
relative viability (CAL-12T; first compound 0.1265 µM): 0.374
relative viability (CAL-12T; first compound 0.4 µM): 0.315
relative viability (CAL-12T; first compound 1.265 µM): 0.337
relative viability (HCC-44; first compound 0.04 µM): 1.16
relative viability (HCC-44; first compound 0.1265 µM): 1.15
relative viability (HCC-44; first compound 0.4 µM): 0.853
relative viability (HCC-44; first compound 1.265 µM): 0.616
relative viability (HCC-827; first compound 0.04 µM): 0.459
relative viability (HCC-827; first compound 0.1265 µM): 0.475
relative viability (HCC-827; first compound 0.4 µM): 0.404
relative viability (HCC-827; first compound 1.265 µM): 0.328
relative viability (HOP-62; first compound 0.04 µM): 0.393
relative viability (HOP-62; first compound 0.1265 µM): 0.332
relative viability (HOP-62; first compound 0.4 µM): 0.304
relative viability (HOP-62; first compound 1.265 µM): 0.308
relative viability (LCLC-103H; first compound 0.04 µM): 0.538
relative viability (LCLC-103H; first compound 0.1265 µM): 0.552
relative viability (LCLC-103H; first compound 0.4 µM): 0.4
relative viability (LCLC-103H; first compound 1.265 µM): 0.392
relative viability (LCLC-97TM1; first compound 0.04 µM): 0.338
relative viability (LCLC-97TM1; first compound 0.1265 µM): 0.315
relative viability (LCLC-97TM1; first compound 0.4 µM): 0.243
relative viability (LCLC-97TM1; first compound 1.265 µM): 0.188
relative viability (LXF-289; first compound 0.04 µM): 0.229
relative viability (LXF-289; first compound 0.1265 µM): 0.187
relative viability (LXF-289; first compound 0.4 µM): 0.126
relative viability (LXF-289; first compound 1.265 µM): 0.143
relative viability (NCI-H1395; first compound 0.04 µM): 0.818
relative viability (NCI-H1395; first compound 0.1265 µM): 0.793
relative viability (NCI-H1395; first compound 0.4 µM): 0.676
relative viability (NCI-H1395; first compound 1.265 µM): 0.604
relative viability (NCI-H1437; first compound 0.04 µM): 0.402
relative viability (NCI-H1437; first compound 0.1265 µM): 0.466
relative viability (NCI-H1437; first compound 0.4 µM): 0.398
relative viability (NCI-H1437; first compound 1.265 µM): 0.405
relative viability (NCI-H1650; first compound 0.04 µM): 0.458
relative viability (NCI-H1650; first compound 0.1265 µM): 0.388
relative viability (NCI-H1650; first compound 0.4 µM): 0.372
relative viability (NCI-H1650; first compound 1.265 µM): 0.295
relative viability (NCI-H1793; first compound 0.04 µM): 0.345
relative viability (NCI-H1793; first compound 0.1265 µM): 0.323
relative viability (NCI-H1793; first compound 0.4 µM): 0.513
relative viability (NCI-H1793; first compound 1.265 µM): 0.266
relative viability (NCI-H1944; first compound 0.04 µM): 0.231
relative viability (NCI-H1944; first compound 0.1265 µM): 0.259
relative viability (NCI-H1944; first compound 0.4 µM): 0.233
relative viability (NCI-H1944; first compound 1.265 µM): 0.249
relative viability (NCI-H2087; first compound 0.04 µM): 0.248
relative viability (NCI-H2087; first compound 0.1265 µM): 0.29
relative viability (NCI-H2087; first compound 0.4 µM): 0.227
relative viability (NCI-H2087; first compound 1.265 µM): 0.186
relative viability (NCI-H2228; first compound 0.04 µM): 0.244
relative viability (NCI-H2228; first compound 0.1265 µM): 0.272
relative viability (NCI-H2228; first compound 0.4 µM): 0.218
relative viability (NCI-H2228; first compound 1.265 µM): 0.186
relative viability (NCI-H2405; first compound 0.04 µM): 0.725
relative viability (NCI-H2405; first compound 0.1265 µM): 0.806
relative viability (NCI-H2405; first compound 0.4 µM): 0.648
relative viability (NCI-H2405; first compound 1.265 µM): 0.583
relative viability (NCI-H3122; first compound 0.04 µM): 0.568
relative viability (NCI-H3122; first compound 0.1265 µM): 0.45
relative viability (NCI-H3122; first compound 0.4 µM): 0.407
relative viability (NCI-H3122; first compound 1.265 µM): 0.326
relative viability (NCI-H322M; first compound 0.04 µM): 0.472
relative viability (NCI-H322M; first compound 0.1265 µM): 0.521
relative viability (NCI-H322M; first compound 0.4 µM): 0.452
relative viability (NCI-H322M; first compound 1.265 µM): 0.437
relative viability (NCI-H647; first compound 0.04 µM): 0.223
relative viability (NCI-H647; first compound 0.1265 µM): 0.381
relative viability (NCI-H647; first compound 0.4 µM): 0.337
relative viability (NCI-H647; first compound 1.265 µM): 0.22
relative viability (NCI-H727; first compound 0.04 µM): 0.67
relative viability (NCI-H727; first compound 0.1265 µM): 0.533
relative viability (NCI-H727; first compound 0.4 µM): 0.407
relative viability (NCI-H727; first compound 1.265 µM): 0.578
relative viability (RERF-LC-KJ; first compound 0.04 µM): 0.531
relative viability (RERF-LC-KJ; first compound 0.1265 µM): 0.422
relative viability (RERF-LC-KJ; first compound 0.4 µM): 0.407
relative viability (RERF-LC-KJ; first compound 1.265 µM): 0.275
relative viability (SK-LU-1; first compound 0.04 µM): 0.296
relative viability (SK-LU-1; first compound 0.1265 µM): 0.347
relative viability (SK-LU-1; first compound 0.4 µM): 0.298
relative viability (SK-LU-1; first compound 1.265 µM): 0.292

Source: the supplement of paper PMC10307832
